From patent US8901160B2, “Heparanase activity inhibitor” (Shiseido Company, Ltd., priority 2009, dated 2014)

Target: T1, heparanase (Homo sapiens, UniProt Q9Y251)
T1 construct: the supernatant was recovered as cell extract; endogenous in cells; host or cells: A431 cells (human epithelial carcinoma), Triton X-100 lysate supernatant
T1 sequence (Q9Y251 158-543 limits assumed): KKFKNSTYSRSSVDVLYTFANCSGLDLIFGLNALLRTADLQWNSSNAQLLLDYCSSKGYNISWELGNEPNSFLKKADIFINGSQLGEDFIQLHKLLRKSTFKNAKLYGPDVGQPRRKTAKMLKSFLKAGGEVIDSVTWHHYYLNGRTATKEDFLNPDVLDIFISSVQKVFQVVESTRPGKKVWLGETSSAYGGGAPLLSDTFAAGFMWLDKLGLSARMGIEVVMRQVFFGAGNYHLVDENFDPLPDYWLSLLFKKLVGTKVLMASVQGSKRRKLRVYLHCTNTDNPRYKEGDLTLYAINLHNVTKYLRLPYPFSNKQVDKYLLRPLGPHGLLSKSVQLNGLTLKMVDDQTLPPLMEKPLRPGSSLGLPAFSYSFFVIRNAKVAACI
T1 sequence (Q9Y251 36-109 limits assumed): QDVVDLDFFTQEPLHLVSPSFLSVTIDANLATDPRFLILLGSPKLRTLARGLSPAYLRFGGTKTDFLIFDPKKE
Experiment: Evaluation based on heparanase activity inhibition rate (A431 cell extract, biotinylated heparan sulfate-immobilized plate)
Assay type: biochemical
Details: 37° C., 2 hours
Procedure: In the primary evaluation using heparanase activity as the index, as described in detail in the examples which follow, biotinylated heparan sulfate was immobilized in 96 wells, after which heparanase was allowed to act in the presence of a drug, and the amount of reduction in biotinylated heparan sulfate was used to evaluate the heparanase activity by the reaction with peroxidase-labeled avidin and coloration.
A431 cells (human epithelial carcinoma cells) were cultured in 10% serum-containing DMEM (Dulbecco's modified Eagle medium). The cultured cells were solubilized in lysis buffer (50 mM Tris, 0.5% TritonX-100, 0.15 M sodium chloride, pH 4.5) and collected with a scraper, and then pipetted and allowed to stand on ice for 30 minutes. This was followed by centrifugation at 10,000 rpm for 10 minutes to remove the insoluble portion, and the supernatant was recovered as cell extract. The amount of protein in the cell extract was measured with a BCA protein assay kit (BCA Protein Assay Kit, PIERCE, CA46141).
The A431 cell extract was then diluted to 500 μg/mL with assay buffer (50 mM HEPES, 50 mM sodium acetate, 150 mM sodium chloride, 9 mM calcium chloride, 0.1% BSA). […] After further rinsing 3 times with PBS-T, TMB reagent (BIO-RAD, 172-1066) was added at 100 μL/well and reacted therewith, the reaction was terminated with 1N sulfuric acid, and the absorbance at 475 nm (OD475) was measured.
Also, DMSO was added to a serial diluent prepared with the aforementioned A431 cell extract assay buffer (cell extract concentrations: 500 μg/mL, 50 μg/mL, 5 μg/mL, 0.5 μg/mL), to a final concentration of 5% without addition of the test compound, to obtain a mixture (solution for calibration curve). The solution for the calibration curve was subjected to the treatment of the same procedure described above, from seeding of the biotinylated heparan sulfate-immobilized plate, and the OD475 was measured. […]

Row | Compound | Heparanase inhibition rate (addition concentration 0.05%) | Heparanase inhibition rate (addition concentration 0.5%)
1 | O=C1NCCN1CCO [1-(2-Hydroxyethyl)-2-imidazolidinone, 1-(2-hydroxyethyl)-2-imidazolidinone] | 99.40% | 
2 | O=C1CCCN1CCO [1-(2-Hydroxyethyl)-2-pyrrolidone, 1-(2-hydroxyethyl)-2-pyrrolidone] | 99.00% | 
3 | O=C1NCCN1 [2-Imidazolidinone, 2-imidazolidinone] |  | 99.95%
